Measurements published in patent publication US20100317621A1, “BETA-LACTAMASE INHIBITORS” (priority 2007, published 2010).
Converted amounts (≈) assume the structure as drawn.

System: E. coli expressing the Class A ESBL CTX-M-15
Experiment: microbe, parasite or virus in culture
Assay type: cell-based
Details: Escherichia coli, read-out: MIC alone, E. coli CTX-M-15

CO/N=C(\C(=O)N[C@@H]1C(=O)N2C(C(=O)O)=C(COC(C)=O)CS[C@H]12)c1csc(N)n1 [cefotaxime]
MIC: 1020 µg/mL (≈ 2250 µM)
